For test [1], the system named is hippocampal kindling. To be noted: cats; cited from earlier work.
The test system of test [2] is seizures provoked by pentylenetetrazole, bicuculline, 4-aminopyridine, thiosemicarbazide and maximal electroshock. To be noted: mice; cited from earlier work.
The subject of test [3] is Seizures induced by pentylenetetrazol (PTZ) in mice. Put plainly: Pentylenetetrazol test (anticonvulsant activity). Format: in vivo. Conditions: for ED50 PTZ / ED50: male CF-1 mice, compound i.p., pentylenetetrazol 100 mg kg^−1 i.p. 30 min after, end point suppression of clonic seizures and death; for ED50: Mus musculus, ip, 0.5 h; for anticonvulsant activity relative to that of the non-halogenated compounds: pentylenetetrazol test, mice, from Table 1. How it is done: Male albino mice CF-1 strain (National Institute of Virology, Mexico City) weighing 18-25 g were housed in groups of 20, at room temperature (20-24° C.), with tap water and food (pellet type Blue Bonnet) ad libitum, with a 12-h light-dark cycle. DL-2-hydroxy-2-phenyl butyramide, DL-3-hydroxy-3-phenyl pentanamide, DL-4-hydroxy-4-phenyl hexanamide and pentylenetetrazol were dissolved in water and compounds 1-10 were dissolved in a 30% polyethyleneglycol-400 solution. All the compounds used were administered intraperitoneally (i.p.). The convulsant dose of pentylenetetrazol inducing seizures and death in 100% of mice (CD100) was determined and used in the test. CD100 value obtained was 100 mg kg^1. To determine the dose-response curves five separate groups of 10-20 mice were dosed i.p. with the test compounds, and pentylenetetrazol, 100 mg kg^−1, i.p., was administered at 30 min after. The suppression of clonic seizures and death was considered the end point of the test. […] The ED50 and 95% confidence intervals were calculated by the method of Litchfield and Wilcoxon (Table 1). See Litchfield et al., J. Pharmacol. Exp. Ther. 96, 99 (1949).

The test system of test [4] is hippocampal kindling. Conditions: rats; cited from earlier work.
The test system of test [5] is γ-aminobutyric acid withdrawal syndrome. To be noted: rats; cited from earlier work.
The next test concerns focal spike activity. To be noted: genetic absence epilepsy rats of the Strasbourg model; cited from earlier work.

Structures are written as SMILES. Read-outs that look alike come from different tables or passages of the source.

For `CCC(O)(CCC(N)=O)c1ccccc1` (racemic) [DL-4-hydroxy-4-Phenylhexanamide, DL-4-hydroxy-4-phenylhexanamide], the “protection against hippocampal kindling” value in the test with hippocampal kindling [1] was “protect cats and rats against hippocampal kindling”; with hippocampal kindling [4], “protect cats and rats against hippocampal kindling”. Further, in test [2], the protection against seizures result is on record as “protect mice against seizures”. The “ED50 PTZ” value in test [3] was 55 mgkg^−1.
Broadly, the ED50 is the dose at which the effect has come halfway, by size or by number of responders. The low end stands for greater potency, the high end for weaker potency. Regarding `CCC(O)(CC(N)=O)c1ccc(Br)cc1` (racemic) [Compound 8, DL-3-hydroxy-3-(4′-bromophenyl) pentanamide], in test [3], the ED50 was found to be 8 mg/kg and the “anticonvulsant activity relative to that of the non-halogenated compounds” value is given as “more than fivefold, sixfold or sevenfold”.
For the compound `CCC(O)(CC(N)=O)c1ccccc1` (racemic) [DL-3-hydroxy-3-Phenyl pentanamide, DL-3-hydroxy-3-phenylpentanamide], the “protection against γ-aminobutyric acid withdrawal syndrome” value in test [5] is “protects rats against the γ-aminobutyric acid withdrawal syndrome”. For the same compound, the “protection against hippocampal kindling” value was “protect cats and rats against hippocampal kindling” in the test on hippocampal kindling [1]; “protect cats and rats against hippocampal kindling” in the test on hippocampal kindling [4]. In addition, the protection against seizures entry in test [2] is “protect mice against seizures”. For the same compound, in the test on focal spike activity, the focal spike activity entry was “significant decrease of focal spike activity”. Moreover, the “ED50 PTZ” value in test [3] is 49 mgkg^−1.
Regarding `CCC(O)(C(N)=O)c1ccc(Cl)c(Cl)c1` (racemic) [Compound 3, DL-2-hydroxy-2-(3′,4′-dichlorophenyl)butyramide], in test [3], the ED50 worked out at 10 mg/kg and the “anticonvulsant activity relative to that of the non-halogenated compounds” value is on record as “more than fivefold, sixfold or sevenfold”.
Turning to `CCC(O)(C(N)=O)c1ccc(C(F)(F)F)cc1` (racemic) [Compound 2, DL-2-hydroxy-2-(4′-trifluoromethylphenyl)butyramide], in test [3], the median effective dose (ED50) was found to be 23 mg/kg and the “anticonvulsant activity relative to that of the non-halogenated compounds” value is on record as “twice, threefold or more than fourfold”.
Consider `CCC(O)(CCC(N)=O)c1ccc(Br)cc1` (racemic) [Compound 10, DL-4-hydroxy-4-(4′-bromophenyl)hexanamide], for which, in test [3], it took a dose of 9 mg/kg to reach the 50% effect level (ED50) and the “anticonvulsant activity relative to that of the non-halogenated compounds” value was “more than fivefold, sixfold or sevenfold”.
For `CCC(O)(CC(N)=O)c1ccc(Cl)c(Cl)c1` (racemic) [Compound 7, DL-3-hydroxy-3-(3′,4′-dichlorophenyl)pentanamide], in test [3], the ED50 is 16 mg/kg and the “anticonvulsant activity relative to that of the non-halogenated compounds” value is recorded as “twice, threefold or more than fourfold”.
For the compound `CCC(O)(C(N)=O)c1ccccc1` (racemic) [DL-2-hydroxy-2-Phenyl butyramide, DL-2-hydroxy-2-phenylbutyramide], the “protection against hippocampal kindling” value is “protect cats and rats against hippocampal kindling” in the test with hippocampal kindling [1]; “protect cats and rats against hippocampal kindling” in the test on hippocampal kindling [4]. The protection against seizures result in test [2] is “protect mice against seizures”. The “ED50 PTZ” value in test [3] is on record as 58 mgkg^−1.
With `CCC(O)(C(N)=O)c1cccc(Br)c1` (racemic) [Compound 4, DL-2-hydroxy-2-(3′-bromophenyl)butyramide], in test [3], the ED50 turned out to be 8 mg/kg and the “anticonvulsant activity relative to that of the non-halogenated compounds” value was “more than fivefold, sixfold or sevenfold”.
`CCC(O)(C(N)=O)c1cccc([N+](=O)[O-])c1` (racemic) [Compound 6, DL-2-hydroxy-2-(3′-nitrophenyl)butyramide]: in test [3], the ED50 amounted to 36 mg/kg and the “anticonvulsant activity relative to that of the non-halogenated compounds” value was “twice, threefold or more than fourfold”.
As to `CCC(O)(C(N)=O)c1ccc(Br)cc1` (racemic) [Compound 5, DL-2-hydroxy-2-(4′-bromophenyl)butyramide], in test [3], the 50% effect level (ED50) was put at a dose of 8 mg/kg and the “anticonvulsant activity relative to that of the non-halogenated compounds” value is given as “more than fivefold, sixfold or sevenfold”.
As to `CCC(O)(C(N)=O)c1cc(C(F)(F)F)cc(C(F)(F)F)c1` (racemic) [Compound 1, DL-2-hydroxy-2-(3′,5′-bistrifluoromethylphenyl) butyramide], in test [3], the ED50 is 10 mg/kg and the “anticonvulsant activity relative to that of the non-halogenated compounds” value was “more than fivefold, sixfold or sevenfold”.
In the case of `CCC(O)(CCC(N)=O)c1ccc(Cl)c(Cl)c1` (racemic) [Compound 9, DL-4-hydroxy-4-(3′,4′-dichlorophenyl)hexanamide], in test [3], the ED50 was 12 mg/kg and the “anticonvulsant activity relative to that of the non-halogenated compounds” value is reported as “twice, threefold or more than fourfold”.

Source of the values: patent publication US20060287397A1, “Dl-hydroxy-alkyl-phenylamides having anticonvulsive activity” (priority 2002, published 2006).
